How the values were obtained:
[1] = system: B16F10 cells; assay: Phagocytosis of drug-treated B16F10 cells by bone marrow-derived DC cells; assay type: cell-based, mouse; conditions: B16F10 treated with Sim 30 μM 12 h, Zol 30 μM 24 h, Doxorubicin 10 μM 12 h; flow cytometry
Procedure: Method: C57/b6 mouse bone marrow cells were cultured in DC differentiation solution, RMPI 1640+10 ng/ml GM-CSF+10 ng/ml IL-4 containing 10% FBS for 7 days. It was ready for use when the percentage of DC cells was above 90%.
B16F10 cells were plated in 6-well plates at a density of 5×10^5. After being adhered for 12 hours, they were treated with Sim and Zol in the figure, and the control group was treated with normal culture medium. The cells treated with the drug were digested with trypsin, and the cells were obtained after centrifugation.
Cell Staining: Flow Cytometry Staining: B16F10 tumor cells were stained for 30 min in 1 ug/ml CFSE at room temperature, and washed twice with PBS after staining; BMDC cells were stained for 30 min in 1 uM CellTracker™ Red, and washed twice with PBS after staining. Cells were ready for use. Immunofluorescence staining: B16F10 cells were stained with DiD, and DC cells were stained with CFSE.
After the drug treatment, the B16F10 control group Ctrl, Sim treatment group, Zol treatment group, and DOX treatment group were co-incubated with DC cells in a 1:1 ratio for 3 hours in an incubator at 37° C., and fixed with 200 ul fluorescent antibody preservation solution (1 ml formaldehyde, 2 g glucose dissolved in 100 ml PBS) after the incubation. Flow cytometer BD FACSAria SORP was used for detection. Data was analyzed with Flojo 7.6.2 software. Cell Tracker™ Red-positive DC cells were first circled out, and the number of CellTracker™ Red-positive DC cells phagocytosing CFSE-positive tumor cells was analysized.

[2] = system: 4T1 cells; assay: CRT and ERp57 on tumor cell membrane after intratumoral injection, 4T1 subcutaneous model; assay type: in vivo, mouse; conditions: 4T1 tumors in BALB/c mice, harvested day 14
Procedure: In vivo experiments: 1×10^6 4 T1 cells were transplanted subcutaneously into the left hip of BALB/c mice and administered starting on the 8th day after tumor transplantation: Sim, dissolved in 75% DMSO, 2 mg/kg, intratumoral injection (i.t.), once every two days for a total of 3 times; Zol, dissolved in sterile PBS, 1 mg/kg, i.t. for once. Tumors were harvested on the 14th day after tumor transplantation. Tumor dissociation kit (mouse) was used to dissociate the tumor into single cells for staining. The staining procedure was performed according to the in vitro experiments as mentioned above.

[3] = system: CT26 cells; assay: Drug-treated dying CT26 cells as tumor vaccine, re-challenge with live CT26 cells; assay type: in vivo, mouse; conditions: BALB/c mice immunized with CT26 cells treated 72 h; 30 days after transplantation; n=10
Procedure: Method: CT26 cells were treated with simvastatin or zoledronic acid. 1.5-3×10^6 dying cells were implanted subcutaneously in the right side of BALB/c mice. The control group was injected with PBS. 1×10^6 live CT26 cells were implanted subcutaneously in the left side of the mice, and tumor volume was observed and measured. Mice with tumor volumes >100 mm^3 were identified as tumor-growing mice, and the number of mice without tumor growth was recorded.
A key factor to determine the ability of drugs to induce immunogenic cell death is whether drug-treated tumor cells can be used as vaccines to protect the body against the re-challenge of the tumor cells. We treated CT26 mouse colon cancer cells with Sim and Zol for 72 h to a dying state, and BALB/c mice were immuned with these dying cells, wherein PBS was injected in the control group. After 7 days, the mice were injected with 5×10^5 live CT26 cells (re-challenge), and the tumor growth was observed after 7 days. 100% of the mice in the control group (n=10) grew tumors on day 9. After 30 days of transplantation, in mice immunized with CT26 cells treated with Sim (n=10) and Zol (n=10), the ratios of tumor-free mice were 80% and 90%, respectively, with statistical difference (FIG. 5).

[4] = system: B16F10 cells; assay: Apoptosis of B16F10 cells, Annexin V and PI staining, flow cytometry; assay type: cell-based, mouse; conditions: after the drug treatment
Procedure: After the drug action, the cells were digested with trypsin into a single-cell suspension, washed with PBS, and stained with Annexin V and PI according to the steps of the apoptosis kit. After staining, data was collected by a flow cytometer, and the data was analyzed by FlowJo7.6. Total RNA was extracted from cells according to the Trizol method, and the RNA was used as a template, and the RNA was reverse transcripted using a reverse transcription kit to cDNA. The obtained cDNA was used for real-time quantitative PCR. 10 μl reaction system was configured according to qPCR SYBR Green Master Mix product instructions, three replicates were set up for each sample. The experimental data was collected using a fluorogenic quantitative PCR instrument LightCycler480 of Roche, and the data was calculated according to the 2^−ΔΔc (t) method.

[5] = after at least 3 years of treatment; more than 1,800 patients; cited from earlier work
[6] = system: melanoma; conditions: patients progressing after Ipilimumab; cited from earlier work
[7] = system: B16F10 cells; assay: Type I interferon and ISG gene expression by Q-PCR in B16F10; assay type: cell-based, mouse; conditions: GGOH 20 μM with Sim 10 μM or Zol 10 μM, 48 h
Procedure: Method: B16F10 cells were cultured with RPMI medium 1640+10% FBS+1% PS, and the remaining cells were cultured with DMEM+10% FBS+1% PS. 5×10^5 B16F10 and 4T1 cells were plated in 6-well plates and adhered for 12 hours, and then treated with simvastatin and zoledronic acid in the figure, and the control group was treated with normal culture medium. A part of the cells treated with the drugs were lysed with 1 ml of Trizol, and RNA was extracted. The expression of IFN-β1, IRF7, IFI44L, IL-15, MAGEB-2 and other genes was detected by LightCycler® 480 II using a Q-PCR method (see table 3 for the primer sequence). In addition, the rescue effect of GGOH on the role of simvastatin and zoledronic acid to promote the release of type I interferon (IFN-β1) and the expression of type I interferon-related stimulated genes ISGs was also tested.

| Compound | DC cells that phagocytosed tumor cells [1] | CRT expressed on the membrane surface [2] | ERp57 expressed on the membrane surface [2] | ratio of tumor-free mice [3] | proportion of cells in the late stage of apoptosis (Annexin+PI+) [4] | further results |
| --- | --- | --- | --- | --- | --- | --- |
| COc1cccc2c1C(=O)c1c(O)c3c(c(O)c1C2=O)C[C@@](O)(C(=O)CO)C[C@@H]3O[C@H]1C[C@H](N)[C@H](O)[C@H](C)O1 [dox, doxorubicin] | approximately 38% |  |  |  |  |  |
| O=P(O)(O)C(O)(Cn1ccnc1)P(=O)(O)O [zoledronic acid] | about 35% | about 1.7 times that of the control group | about 1.7 times that of the control group | 90% | about 50% |  |
| CCC(C)(C)C(=O)O[C@H]1C[C@@H](C)C=C2C=C[C@H](C)[C@H](CC[C@@H]3C[C@@H](O)CC(=O)O3)[C@H]21 [simvastatin] | 51.6% | about 1.7 times that of the control group | about 1.7 times that of the control group | 80% | about 50% |  |
| Ipilimumab: humanized CTLA-4 antibody |  |  |  |  |  | patient survival rate [5]: approximately 20% |
| Nivolumab: antibody targeting PD-1 |  |  |  |  |  | patients with complete remission [6]: 32% |
| CC(C)=CCC/C(C)=C/CC/C(C)=C/CC/C(C)=C/CO [GGOH] |  |  |  |  |  | effect of GGOH on release of type I interferon and ISG by simvastatin and zoledronic acid [7]: counteract |

— patent publication US20210008084A1, “MEVALONATE PATHWAY INHIBITOR AND PHARMACEUTICAL COMPOSITION THEREOF” (TSINGHUA UNIVERSITY, priority 2017, published 2021)
